Counter-ions that a name gives are not always drawn.
What follows are molecules tested against T1, PPARδ (Homo sapiens, UniProt Q03181) (assay: Transactivation assay (PPARδ GAL4 assay) in transiently transfected HEK293 cells). Details: luciferase reporter, Table 1.
T1 construct: fused to amino acids 147-441 of PPARδ downstream of CMV promoter; expressed in transfected cells; host or cells: HEK293 cells, transiently transfected with pFACMV-PPARδ using Fugene
T1 sequence (Q03181 147-441): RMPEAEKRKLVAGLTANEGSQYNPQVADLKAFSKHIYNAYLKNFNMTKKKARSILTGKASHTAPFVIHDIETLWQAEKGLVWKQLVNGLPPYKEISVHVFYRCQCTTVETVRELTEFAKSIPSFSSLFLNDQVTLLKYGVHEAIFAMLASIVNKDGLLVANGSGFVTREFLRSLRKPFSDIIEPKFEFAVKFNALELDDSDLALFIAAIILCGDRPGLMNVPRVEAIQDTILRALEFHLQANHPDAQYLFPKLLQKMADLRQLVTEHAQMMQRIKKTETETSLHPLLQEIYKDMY
Assay type: cell-based
How it was run: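 HEK293 cells transiently co-transfected with GAL4 DBD (aa 1-147)–PPARδ (aa 147-441) fusion and 5×GAL4-luciferase reporter, then exposed 24 h to compound (final 0-30 μM) in OptiMEM at 37° C. Luminescence read; activity as percent of GW501516 control, EC50 from sigmoidal dose-response fit.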

| SMILES | EC50 [nM] |
| --- | --- |
| CCc1cc(C(=O)c2ccc(OC)cc2)c(NC(=O)CNCC(=O)O)s1 [Example 74, ({[5-Ethyl-3-(4-methoxy-benzoyl)-thiophen-2-ylcarbamoyl]-methyl}-amino)-acetic acid hydrochloride] | 1000 to 30000 |
| CCc1cc(C(=O)c2ccc(OC(F)(F)F)cc2)c(NC(=O)CNC(C)(C)C(=O)O)s1 [Example 76, 2-({[5-Ethyl-3-(4-trifluoromethoxy-benzoyl)-thiophen-2-ylcarbamoyl]-methyl}-amino)-2-methyl-propionic acid] | < 100 |
| CCc1cc(C(=O)c2ccc(OC(F)(F)F)cc2)c(NC(=O)CNC(CC(C)C)C(=O)O)s1 (centres unmarked) [Example 77, 2-({[5-Ethyl-3-(4-trifluoromethoxy-benzoyl)-thiophen-2-ylcarbamoyl]-methyl}-amino)-4-methyl-pentanoic acid] | < 100 |
| CCc1cc(C(=O)c2ccc(OC(F)(F)F)cc2)c(NC(=O)CN[C@@H](C(=O)O)C(C)C)s1 [Example 78, (R)-2-({[5-Ethyl-3-(4-trifluoromethoxy-benzoyl)-thiophen-2-ylcarbamoyl]-methyl}-amino)-3-methyl-butyric acid] | 1000 to 30000 |
| CCc1cc(C(=O)c2ccc(OC(F)(F)F)cc2)c(NC(=O)CN[C@H](C(=O)O)C(C)C)s1 [Example 79, (S)-2-({[5-Ethyl-3-(4-trifluoromethoxy-benzoyl)-thiophen-2-ylcarbamoyl]-methyl}-amino)-3-methyl-butyric acid] | < 100 |
| CCc1cc(C(=O)c2ccc(OC(F)(F)F)cc2)c(NC(=O)CNC(CC)C(=O)O)s1 (centres unmarked) [Example 80, 2-({[5-Ethyl-3-(4-trifluoromethoxy-benzoyl)-thiophen-2-ylcarbamoyl]-methyl}-amino)-butyric acid] | < 100 |

Second part, the molecule after the results:

| EC50 [nM] | SMILES |
| --- | --- |
| 100 to 1000 | CCc1cc(C(=O)c2ccc(OC(F)(F)F)cc2)c(NC(=O)CNCC(=O)O)s1 [Example 81, ({[5-Ethyl-3-(4-trifluoromethoxy-benzoyl)-thiophen-2-ylcarbamoyl]-methyl}-amino)-acetic acid] |
| 1000 to 30000 | CCc1cc(C(=O)c2ccc(OC(F)(F)F)cc2)c(NC(=O)CNC2(C(=O)O)CC2)s1 [Example 82, 1-({[5-Ethyl-3-(4-trifluoromethoxy-benzoyl)-thiophen-2-ylcarbamoyl]-methyl}-amino)-cyclopropanecarboxylic acid] |
| < 100 | CCc1cc(C(=O)c2ccc(-c3ccc(F)cc3)cc2)c(NC(=O)CNC(C)(C)C(=O)O)s1 [Example 83, 2-({[5-Ethyl-3-(4′-fluoro-biphenyl-4-carbonyl)-thiophen-2-ylcarbamoyl]-methyl}-amino)-2-methyl-propionic acid] |
| 100 to 1000 | CCc1cc(C(=O)c2cccc(-c3ccc(OC(F)(F)F)cc3)c2)c(NC(=O)CNC(C)(C)C(=O)O)s1 [Example 84, 2-({[5-Ethyl-3-(4′-trifluoromethoxy-biphenyl-3-carbonyl)-thiophen-2-ylcarbamoyl]-methyl}-amino)-2-methyl-propionic acid] |
| 100 to 1000 | CCc1cc(C(=O)c2cccc(-c3ccc(F)cc3)c2)c(NC(=O)CNC(C)(C)C(=O)O)s1 [Example 85, 2-({[5-Ethyl-3-(4′-fluoro-biphenyl-3-carbonyl)-thiophen-2-ylcarbamoyl]-methyl}-amino)-2-methyl-propionic acid] |
| 100 to 1000 | CC(C)(NCC(=O)Nc1sc(Cl)cc1C(=O)c1ccc(OC(F)(F)F)cc1)C(=O)O [Example 86, 2-({[5-Chloro-3-(4-trifluoromethoxy-benzoyl)-thiophen-2-ylcarbamoyl]-methyl}-amino)-2-methyl-propionic acid] |
| 100 to 1000 | CCc1cc(C(=O)c2ccc(Cl)cc2)c(NC(=O)C(C)N(C)CC(=O)O)s1 (centres unmarked) [Example 87, ({1-[3-(4-Chloro-benzoyl)-5-ethyl-thiophen-2-ylcarbamoyl]-ethyl}-methyl-amino)-acetic acid] |
| 1000 to 30000 | CCc1cc(C(=O)c2ccc(OC)cc2)c(NC(=O)CSc2cccc(OCC(=O)O)c2)s1 [Example 88, (3-{[5-Ethyl-3-(4-methoxy-benzoyl)-thiophen-2-ylcarbamoyl]-methylsulfanyl}-phenoxy)-acetic acid] |

Reference: patent publication US20100063065A1 (Inpharmatica Limited, priority 2005, published 2010)
